Reference: US9708315B2, “1,2,4-triazolo[4,3-a]pyridine compounds and their use as positive allosteric modulators of MGLUR2 receptors” (Janssen Pharmaceutica NV, priority 2013, dated 2017)

Key:
Format in all cases: in vivo
[1] = tested on: Adult male CF No 1 albino mice; assay: Minimal motor impairment (rotarod) in mice
Procedure: Test compounds were administered using an optimal fluid volume to body fluid ratio. Test compounds were administered to mice in a volume of 0.01 ml/g of body weight (White, H. S., et al., General principles: Experimental selection, quantification, and evaluation of antiepileptic drugs, in Antiepileptic Drugs, Fourth Edition, R. H. Levy, R. H. Mattson, and B. S. Meldrum, Editors. 1995, Raven Press, Ltd.: New York. p. 99-110). The test compound number 6 was administered orally (p.o.). For each of the tests performed on the test compound, a 40% Hydroxypropyl-β-cyclodextrin (Hp-β-CD) stock solution was first prepared and utilized for formulating the test compound number 6 at the desired concentrations for testing via the oral (p.o.) route. Final compound concentrations were administered as suspensions in 20% Hp-β-CD. A 20% Hp-β-CD solution was used for the vehicle groups.
Adult male CF No 1 albino mice (26-35 g) were obtained from Charles River, Portage, Mich. The animals were maintained on an adequate diet (Prolab RMH 3000) and allowed free access to food and water, except during the short time they were removed from their cage for testing. Animals newly received in the laboratory were allowed sufficient time to correct for possible food and water restriction incurred during transit before being employed in testing. All mice were housed in plastic cages in specially constructed rooms with controlled humidity, exchange of air and controlled lighting (12 hours on-12 hours off). The animals were housed, fed, and handled in a manner consistent with the recommendations in the National Council Publication, “Guide for the Care and Use of Laboratory animals.” Experimental Design General Methods Minimal Motor Impairment (MMI):
Acute MMI was assessed by a combination of direct observations of the animal for overt symptoms of the animal's neurological or muscular function. In mice, the rotarod procedure was used to disclose minimal muscular or neurological impairment. When a mouse is placed on a rod that rotates at a speed of 6 rpm, the animal can maintain its equilibrium for long periods of time. The animal was considered toxic if it fell off this rotating rod three times during a 1 min period.

male NMRI mice = assay: Phencyclidine (PCP)-induced hyperlocomotion in mice; settings: Mus musculus, PO, PCP 5 mg/kg s.c., read-out: ED50 PCP (inhibition of PCP-induced hyperlocomotion)
Procedure: On the day of experiments, the mice were brought into the procedural room. They were housed individually and allowed to acclimate for at least a half hour prior to testing. Although the studies were conducted during the light cycle (from 8:00 to 16:00 h), the procedure room was only sparsely lit (3 to 30 LUX) to provide better contrast for the video tracking. Local lighting was used for the injection procedures. During each trial, an individual mouse was placed in an open field arena (grey PVC cylinder with a height of 40 cm and a diameter of 22.5 cm). Each arena was placed on an infrared LED (8×8 LEDs)-lit box (white PVC squared box; 40×40 cm^2; height 12.5 cm). Each mouse was placed in the center of the arena and allowed to explore freely for 30 min. After each trial, the arena was cleaned with a wet and subsequently with a dry cleaning cloth. […] Animal behavior was recorded and analyzed using the Noldus Ethovision XT Video Tracking System (Version 3.1; Noldus, Wageningen, The Netherlands). The total distance traveled (cm) was calculated. […]
Test compound or solvent was administered at a pre-defined time before measurement (standard: 30 min) to male NMRI mice that were challenged with phencyclidine (PCP; 5 mg/kg, s.c.) 30 min before measurement. Activity was measured for a period of 30 min.

male Wiga Wistar rats = assay: Conditioned avoidance response (CAR) test in rats; settings: Rattus norvegicus, PO, suspension in 20% hydroxypropyl-b-cyclodextrin containing 1% polysorbate 80
Excerpt: The apparatus consisted of an inner box surrounded by an outer box. The inner box was composed of four walls of transparent, synthetic material (length×width×height: 30×30×30 cm), an open top, and a grid floor made of 15 pairs of iron bars (2 mm diameter; 6 mm inter-bar distance). Odd and even bars were connected with a source of alternative current (1.0 mA; Coulbourn Instruments Solid State Shocker/Distributor), which could be interrupted by a switch. The outer box was composed of the same material (length×width×height: 40×40×36 cm), also with an open top, with a distance of 5 cm between the inner and outer box on all sides. To decrease the amount of environmental stimuli, three walls of the outer box were made non-transparent. The front wall was left transparent to allow the necessary inspection of the animal during the test. The upper edge of the outer and inner box served as a target for the rats on which to jump with fore- and hind-paws, respectively. Avoidance Conditioning and Selection of Animals From their arrival in the laboratory on the experimental day, male Wiga Wistar rats (230±30 g) were housed in individual cages provided with bedding material. […] Experimental Sessions The rats were tested 3 times, i.e. at 60, 90 and 120 min after the injection of test compound or solvent. Latency to avoidance was recorded. […]

C[C@H](Oc1ccc(F)cc1F)c1ccn2c(CC3CC3)nnc2c1C(F)(F)F [Compound 6, 3-(Cyclopropylmethyl)-7-[(1S)-1-(2,4-difluorophenoxy)ethyl]-8-(trifluoromethyl)[1,2,4]triazolo[4,3-a]pyridine]
# rotarod motor impairment/# tested ([1]; 10 mg/kg p.o., 0.25 h): 0/4
# rotarod motor impairment/# tested ([1]; 10 mg/kg p.o., 0.5 h): 0/4
# rotarod motor impairment/# tested ([1]; 10 mg/kg p.o., 1 h): 0/4
# rotarod motor impairment/# tested ([1]; 10 mg/kg p.o., 2 h): 0/4
# rotarod motor impairment/# tested ([1]; 10 mg/kg p.o., 4 h): 0/4
# rotarod motor impairment/# tested ([1]; 20 mg/kg p.o., 0.25 h): 0/4
# rotarod motor impairment/# tested ([1]; 20 mg/kg p.o., 0.5 h): 0/4
# rotarod motor impairment/# tested ([1]; 20 mg/kg p.o., 1 h): 0/4
# rotarod motor impairment/# tested ([1]; 20 mg/kg p.o., 2 h): 0/4
# rotarod motor impairment/# tested ([1]; 20 mg/kg p.o., 4 h): 0/4
# rotarod motor impairment/# tested ([1]; dose-response, 6 Hz 32 mA group, 2.5 mg/kg p.o., 0.5 h): 0/8
# rotarod motor impairment/# tested ([1]; dose-response, 6 Hz 32 mA group, 5 mg/kg p.o., 0.5 h): 0/8
# rotarod motor impairment/# tested ([1]; dose-response, 6 Hz 32 mA group, 10 mg/kg p.o., 0.5 h): 0/8
# rotarod motor impairment/# tested ([1]; dose-response, 6 Hz 32 mA group, 20 mg/kg p.o., 0.5 h): 0/8
# rotarod motor impairment/# tested ([1]; dose-response, 6 Hz 44 mA group, 10 mg/kg p.o., 0.5 h): 0/8
# rotarod motor impairment/# tested ([1]; dose-response, 6 Hz 44 mA group, 15 mg/kg p.o., 0.5 h): 0/8
# rotarod motor impairment/# tested ([1]; dose-response, 6 Hz 44 mA group, 20 mg/kg p.o., 0.5 h): 0/8
# rotarod motor impairment/# tested ([1]; dose-response, 6 Hz 44 mA group, 40 mg/kg p.o., 0.5 h): 0/8
ED50 (male NMRI mice): 28.3 mg/kg
ED50 (male Wiga Wistar rats): 8.1 mg/kg
